Measurements taken from PubChem BioAssay AID192 (DTP/NCI, 2004).
Several values for one entry are separate records, joined by “and”; a condition that tells them apart may be missing. Equal values may be shown once. Toxic doses and inconclusive results are not listed.

System: BDF1 mice, B16 melanoma ip, median survival T/C
Test: NCI In Vivo Anticancer Drug Screen. Data for tumor model B16 Melanoma (intraperitoneal) in B6D2F1 (BDF1) mice
Details: endpoint: median survival time, higher = longer survival
Outline: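 Tumor-bearing mice received test compound or vehicle. Survival or tumor size was then measured in both groups. The treated-group figure was divided by the control-group figure.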

[1] = dose: 100.0 mg/kg/injection, schedule: Q01DX009 (ip), vehicle: Klucel (hydroxypropylcellulose) (HPC)
[2] = dose: 200.0 mg/kg/injection, schedule: Q01DX009 (ip), vehicle: Klucel (hydroxypropylcellulose) (HPC)
[3] = dose: 50.0 mg/kg/injection, schedule: Q01DX009 (ip), vehicle: Klucel (hydroxypropylcellulose) (HPC)
[4] = dose: 25.0 mg/kg/injection, schedule: Q01DX009 (ip), vehicle: Klucel (hydroxypropylcellulose) (HPC)
[5] = dose: 6.25 mg/kg/injection, schedule: Q01DX009 (ip), vehicle: saline
[6] = dose: 12.5 mg/kg/injection, schedule: Q01DX009 (ip), vehicle: saline
[7] = dose: 400.0 mg/kg/injection, schedule: Q01DX009 (ip), vehicle: Klucel (hydroxypropylcellulose) (HPC)
[8] = dose: 8.0 mg/kg/injection, schedule: Q01DX009 (ip), vehicle: saline
[9] = dose: 16.0 mg/kg/injection, schedule: Q01DX009 (ip), vehicle: saline
[10] = dose: 32.0 mg/kg/injection, schedule: Q01DX009 (ip), vehicle: saline
[11] = dose: 100.0 mg/kg/injection, schedule: Q01DX009 (ip), vehicle: saline with Tween-80
[12] = dose: 200.0 mg/kg/injection, schedule: Q01DX009 (ip), vehicle: saline with Tween-80
[13] = dose: 25.0 mg/kg/injection, schedule: Q01DX009 (ip), vehicle: saline with Tween-80
[14] = dose: 50.0 mg/kg/injection, schedule: Q01DX009 (ip), vehicle: saline with Tween-80

Structure (SMILES): COC(=O)[C@@H]1[C@H](O)[C@H](C)[C@H](O)[C@H](C)/C=C\C=C(C)C(=O)Nc2c(C)c(OC(C)=O)c3c(c2O)C(=O)C(C)=C2OCOC(=C23)C(C)=C[C@@](C)(O)[C@H](O)[C@@H](C)[C@H]1OC(C)=O
- T/C [1]: 104 % of control
- T/C (dose: 100.0 mg/kg/injection, schedule: Q01DX009 (ip), vehicle: carboxymethylcellulose (CMC)): 103 % of control
- T/C [2]: 94 % of control
- T/C (dose: 200.0 mg/kg/injection, schedule: Q01DX009 (ip), vehicle: carboxymethylcellulose (CMC)): 123 % of control
- T/C (dose: 400.0 mg/kg/injection, schedule: Q01DX009 (ip), vehicle: carboxymethylcellulose (CMC)): 97 % of control

Structure (SMILES): Cc1ccc(C(=O)NC2C(=O)NC(C(C)C)C(=O)N3CCCC3C(=O)N(C)CC(=O)N(C)C(C(C)C)C(=O)OC2C)c2c1Oc1c(c(C(=O)NC3C(=O)NC(C(C)C)C(=O)N4CCCC4C(=O)N(C)CC(=O)N(C)C(C(C)C)C(=O)OC3C)c3nc(CF)c(=O)oc3c1C)N2 (stereo unspecified)
- T/C (dose: 0.13 mg/kg/injection, schedule: Q04DX003 (ip), vehicle: saline + alcohol): 154 % of control
- T/C (dose: 0.25 mg/kg/injection, schedule: Q04DX003 (ip), vehicle: saline + alcohol): 164 % of control
- T/C (dose: 31.25 micrograms/kg/injection, schedule: Q04DX003 (ip), vehicle: water): 112 % of control
- T/C (dose: 125.0 micrograms/kg/injection, schedule: Q04DX003 (ip), vehicle: water): 180 % of control
- T/C (dose: 250.0 micrograms/kg/injection, schedule: Q04DX003 (ip), vehicle: water): 170 % of control
- T/C (dose: 500.0 micrograms/kg/injection, schedule: Q04DX003 (ip), vehicle: water): 175 % of control

Structure (SMILES): CCN(CC)CCOc1ccc(Br)cc1
- T/C (dose: 12.5 mg/kg/injection, schedule: Q01DX009 (ip), vehicle: Klucel (hydroxypropylcellulose) (HPC)): 96 % of control
- T/C [3]: 87 % of control and 98 % of control

Structure (SMILES): O=C(O)CC(=O)O.[NH-]CC[NH-].[Pt+2]
- T/C (dose: 3.12 mg/kg/injection, schedule: Q01DX009 (ip), vehicle: dextrose): 119 % of control
- T/C (dose: 12.5 mg/kg/injection, schedule: Q01DX009 (ip), vehicle: dextrose): 171 % of control
- T/C [4]: 197 % of control and 214 % of control

Structure (SMILES): CC(C)=CCC1(O)C(=O)c2ccccc2C1(O)C(=O)O (stereo unspecified)
- T/C [4]: 92 % of control
- T/C [3]: 101 % of control
- T/C [1]: 90 % of control
- T/C [2]: 93 % of control

Structure (SMILES): O=c1[nH]c2ccccc2c2cc3ccccc3cc12
- T/C [5]: 94 % of control
- T/C [6]: 86 % of control

Structure (SMILES): O=C1CC(c2ccc(O)cc2)CC(=O)C1C(C1CC=CCC1)N(CCCl)CCCl (stereo unspecified)
- T/C [4]: 88 % of control
- T/C [3]: 95 % of control
- T/C [1]: 90 % of control
- T/C [2]: 92 % of control
- T/C [7]: 97 % of control

Structure (SMILES): CS(=O)(=O)OCCN(CCOS(C)(=O)=O)c1ccc(C=O)cc1
- T/C (dose: 6.25 mg/kg/injection, schedule: Q01DX009 (ip), vehicle: saline with Tween-80): 170 % of control

Structure (SMILES): CC([NH-])C[NH-].[Cl][Pt+2][Cl] (stereo unspecified)
- T/C (dose: 0.31 mg/kg/injection, schedule: Q01DX009 (ip), vehicle: saline): 102 % of control
- T/C (dose: 0.31 mg/kg/injection, schedule: Q04DX003 (ip), vehicle: saline): 89 % of control
- T/C (dose: 0.62 mg/kg/injection, schedule: Q01DX009 (ip), vehicle: saline): 112 % of control
- T/C (dose: 0.62 mg/kg/injection, schedule: Q04DX003 (ip), vehicle: saline): 100 % of control
- T/C (dose: 1.25 mg/kg/injection, schedule: Q01DX009 (ip), vehicle: saline): 110 % of control
- T/C (dose: 1.25 mg/kg/injection, schedule: Q04DX003 (ip), vehicle: saline): 107 % of control

Structure (SMILES): Nc1ccc2ccc(O)cc2c1
- T/C (dose: 75.0 mg/kg/injection, schedule: Q04DX003 (ip), vehicle: saline with Tween-80): 105 % of control
- T/C (dose: 150.0 mg/kg/injection, schedule: Q04DX003 (ip), vehicle: saline with Tween-80): 95 % of control

Structure (SMILES): O=C1c2ccccc2C(=O)c2c(NCCCCCO)ccc(NCCCCCO)c21
- T/C (dose: 8.0 mg/kg/injection, schedule: Q01DX009 (ip), vehicle: Klucel (hydroxypropylcellulose) (HPC)): 99 % of control
- T/C (dose: 16.0 mg/kg/injection, schedule: Q01DX009 (ip), vehicle: Klucel (hydroxypropylcellulose) (HPC)): 95 % of control
- T/C (dose: 32.0 mg/kg/injection, schedule: Q01DX009 (ip), vehicle: Klucel (hydroxypropylcellulose) (HPC)): 91 % of control

Structure (SMILES): CCN(CC)CCCC(C)Nc1c2ccc(Cl)cc2nc2ccc(OC)cc12 (stereo unspecified)
- T/C (dose: 8.0 mg/kg/injection, schedule: Q01DX009 (ip), vehicle: saline with Tween-80): 94 % of control and 102 % of control
- T/C [8]: 100 % of control
- T/C (dose: 8.0 mg/kg/injection, schedule: Q01DX009 (ip), vehicle: suspension in saline): 103 % of control
- T/C (dose: 16.0 mg/kg/injection, schedule: Q01DX009 (ip), vehicle: saline with Tween-80): 88 % of control and 107 % of control
- T/C [9]: 102 % of control
- T/C (dose: 16.0 mg/kg/injection, schedule: Q01DX009 (ip), vehicle: suspension in saline): 105 % of control
- T/C (dose: 20.0 mg/kg/injection, schedule: Q04DX003 (ip), vehicle: saline with Tween-80): 96 % of control
- T/C (dose: 32.0 mg/kg/injection, schedule: Q01DX009 (ip), vehicle: saline with Tween-80): 116 % of control and 118 % of control
- T/C [10]: 104 % of control
- T/C (dose: 32.0 mg/kg/injection, schedule: Q01DX009 (ip), vehicle: suspension in saline): 107 % of control
- T/C (dose: 40.0 mg/kg/injection, schedule: Q04DX003 (ip), vehicle: saline with Tween-80): 105 % of control
- T/C (dose: 80.0 mg/kg/injection, schedule: Q04DX003 (ip), vehicle: saline with Tween-80): 101 % of control
- T/C (dose: 128.0 mg/kg/injection, schedule: Q01DX009 (ip), vehicle: saline with Tween-80): 152 % of control

Structure (SMILES): Cc1ccc(Nc2ccc([N+](=O)[O-])cc2[N+](=O)[O-])cc1C
- T/C [1]: 98 % of control
- T/C [2]: 97 % of control
- T/C [7]: 96 % of control

Structure (SMILES): CC(=O)C(C)C(C)=O
- T/C [11]: 88 % of control
- T/C [12]: 90 % of control
- T/C (dose: 400.0 mg/kg/injection, schedule: Q01DX009 (ip), vehicle: saline with Tween-80): 91 % of control

Structure (SMILES): C1CC[N-]CC1.C1CC[N-]CC1.C1CC[N-]CC1.[Cl][Rh]([Cl])[Cl]
- T/C (dose: 2.0 mg/kg/injection, schedule: Q01DX009 (ip), vehicle: saline): 93 % of control
- T/C (dose: 4.0 mg/kg/injection, schedule: Q01DX009 (ip), vehicle: saline): 99 % of control
- T/C [5]: 109 % of control
- T/C (dose: 6.25 mg/kg/injection, schedule: Q01DX009 (ip), vehicle: suspension in saline): 103 % of control
- T/C [8]: 103 % of control
- T/C (dose: 12.5 mg/kg/injection, schedule: Q01DX009 (ip), vehicle: saline with Tween-80): 98 % of control
- T/C (dose: 12.5 mg/kg/injection, schedule: Q01DX009 (ip), vehicle: suspension in saline): 103 % of control
- T/C [9]: 104 % of control
- T/C [13]: 87 % of control
- T/C (dose: 25.0 mg/kg/injection, schedule: Q01DX009 (ip), vehicle: suspension in saline): 110 % of control
- T/C [10]: 121 % of control
- T/C [14]: 93 % of control
- T/C (dose: 50.0 mg/kg/injection, schedule: Q01DX009 (ip), vehicle: suspension in saline): 110 % of control
- T/C [11]: 94 % of control
- T/C (dose: 100.0 mg/kg/injection, schedule: Q01DX009 (ip), vehicle: suspension in saline): 115 % of control
- T/C [12]: 100 % of control
- T/C (dose: 200.0 mg/kg/injection, schedule: Q01DX009 (ip), vehicle: suspension in saline): 112 % of control

Structure (SMILES): COc1cc(C(C)c2cc3c(cc2OCCO)OCO3)cc(OC)c1OC (stereo unspecified)
- T/C [13]: 107 % of control
- T/C [14]: 104 % of control
- T/C [11]: 110 % of control
- T/C [12]: 112 % of control

Structure (SMILES): NC(=O)C1(N2CCCCC2)CCN(CCCC(=O)c2ccc(F)cc2)CC1
- T/C [5]: 108 % of control
- T/C [6]: 108 % of control
- T/C (dose: 25.0 mg/kg/injection, schedule: Q01DX009 (ip), vehicle: saline): 113 % of control
- T/C (dose: 50.0 mg/kg/injection, schedule: Q01DX009 (ip), vehicle: saline): 105 % of control
- T/C (dose: 100.0 mg/kg/injection, schedule: Q01DX009 (ip), vehicle: saline): 105 % of control

Structure (SMILES): O=C1C=CC(=O)C2=C1CCCC2
- T/C (dose: 2.9 mg/kg/injection, schedule: Q01DX009 (ip), vehicle: saline with Tween-80): 87 % of control
- T/C (dose: 4.5 mg/kg/injection, schedule: Q01DX009 (ip), vehicle: saline with Tween-80): 87 % of control
